# Results as given in publication PMC11013419, “Understanding Antidiabetic Potential of Oligosaccharides from Red Alga Dulse Devaleraea inkyuleei Xylan by Investigating α-Amylase and α-Glucosidase Inhibition” (Molecules, 2024).
# Experiments:
# MGAM [1] = target: MGAM; design: method as in PMID 22058037; conditions: as reported; cited from earlier work
# [2] = target: T1, α-amylase from porcine pancreas (Sus scrofa, UniProt P00690); test: α-Amylase inhibition assay (starch, DNS method); type: biochemical; conditions: for IC50: porcine pancreas α-amylase, 1% starch, 37 °C, pH 6.9
# T1 construct: α-amylase from porcine pancreas (EC 3.2.1.1), type VI-B; purchased Sigma Aldrich type VI-B; host or cells: porcine pancreas
# T1 sequence (P00690 16-511): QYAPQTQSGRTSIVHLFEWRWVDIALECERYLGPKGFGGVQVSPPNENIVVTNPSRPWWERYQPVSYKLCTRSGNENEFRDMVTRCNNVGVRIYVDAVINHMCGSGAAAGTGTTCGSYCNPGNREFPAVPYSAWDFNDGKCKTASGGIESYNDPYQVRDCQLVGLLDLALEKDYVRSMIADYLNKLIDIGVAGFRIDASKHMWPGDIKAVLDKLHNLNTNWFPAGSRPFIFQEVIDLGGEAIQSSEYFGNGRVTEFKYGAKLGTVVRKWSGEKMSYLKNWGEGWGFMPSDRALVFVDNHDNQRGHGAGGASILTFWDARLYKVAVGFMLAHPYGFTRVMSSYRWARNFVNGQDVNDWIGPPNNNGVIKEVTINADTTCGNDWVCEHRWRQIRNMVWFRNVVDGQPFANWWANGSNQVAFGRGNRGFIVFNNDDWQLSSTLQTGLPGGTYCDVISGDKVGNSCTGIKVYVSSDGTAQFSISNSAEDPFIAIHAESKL
# Protocol: (§1) The α-amylase from porcine pancreas solution was freshly prepared by mixing enzyme powder with 20 mM phosphate buffer (pH 6.9) containing 6.7 mM NaCl to produce a solution at 3 U/mL [39]. Pre-incubation was initiated by mixing 20 µL of α-amylase solution with 20 µL of inhibitor or distilled water for 10 min at 37 °C. Then, 20 µL of 1% (w/v) starch (prepared in 20 mM phosphate buffer (pH 6.9) containing 6.7 mM NaCl and heated at 100 °C for 10 min) or phosphate buffer was added, and the mixture was incubated at 37 °C for 10 min. The reaction was stopped by boiling the mixture for 10 min and cooling in an ice bath. The concentration of reducing sugars was calculated by the DNS method. The inhibition was analysed at different inhibitor and substrate concentrations. The half-maximum inhibition concentration (IC50) was calculated using nonlinear regression. The α-amylase inhibitory activity was calculated as follows: α-amylase inhibitory activity=1−As−A0/Ac×100 where As represents the absorbance of the sample, Ac is the absorbance of the control without the inhibitor, and A0 is the absorbance of the sample without α-amylase.
# MGAM [3] = target: T2, MGAM (Homo sapiens, UniProt O43451); test: Kinetics of MGAM inhibition (Michaelis–Menten, Lineweaver–Burk); type: biochemical; conditions: for Inhibition Type (MGAM): Lineweaver–Burk plot; for Vmax^app, inhibitor concentration A / Vmax^app, inhibitor concentration B / Vmax^app, inhibitor concentration C: MGAM, without inhibitor 0.089; for Vmax^app, inhibitor concentration A: A: X2 1.49, X3 1.63, DX3 1.33, DX4 1.28 mg/mL; for Vmax^app, inhibitor concentration B: B: X2 2.79, X3 4.08, DX3 3.32, DX4 3.19 mg/mL; for Vmax^app, inhibitor concentration C: C: X2 3.73, X3 10.19, DX3 8.30, DX4 7.98 mg/mL; for Ki: competitive inhibition constant
# T2 construct: made in house
# Protocol: (§2) For this experiment, recombined human maltase-glucoamylase (MGAM) was prepared as previously reported and dissolved in 0.1 M phosphate buffer (pH 6.4) to produce a solution at 0.5 U/mL. Pre-incubation was initiated by mixing 20 µL of MGAM solution with 20 µL of inhibitor or distilled water for 10 min at 37 °C. Then, 40 µL of 8 mM maltose or phosphate buffer was added and the mixture was incubated at 37 °C for 10 min, and the reaction was stopped by boiling for 10 min and cooling in an ice bath. Glucose was quantified using a Glucose CII-test (Wako Pure Chemical Industries, Osaka, Japan). The 20 µL reaction mixture was added to a 100 µL of Glucose CII-test. The reaction proceeded for 10 min at 37 °C, and the absorbance at 492 nm was measured. The inhibition was analysed at different inhibitor and substrate concentrations. The half-maximum inhibition concentration (IC50) was calculated using nonlinear regression. The MGAM inhibitory activity was calculated as follows: MGAM inhibitory activity=1−As−A0/Ac×100 where As represents the absorbance of the sample, Ac is the absorbance of the control without the inhibitor, and A0 is the absorbance of the sample without MGAM.
# To study the kinetics of MGAM and α-amylase inhibition by XOS, the initial velocity in absorbance/min (ΔOD/min) was calculated at different substrate concentrations (0 to 10 mg/mL starch concentration for α-amylase and 0 to 8 mM maltose concentration for MGAM) and XOS concentrations. The values of initial velocity at different substrate concentrations at each XOS concentration was plotted (Michaelis–Menten plot), as well as the double reciprocal plot at each XOS concentration (Lineweaver–Burk plot).
# The Michaelis–Menten equation for competitive inhibition is given as follows: v=Vmax×S/Km1+I/Ki+S=Vmaxapp×S/Kmapp+S
# And the corresponding Lineweaver–Burk equation is given as follows: 1/v=Km/Vmax1+I/Ki1/S+1/Vmax where v is the initial velocity, Vmax is the maximum initial reaction velocity, I is the concentration of the inhibitor, S is the concentration of the substrate, Km is the Michaelis constant, and Ki is the competitive inhibition constant.
# [4] = target: T3, recombined human maltase-glucoamylase (MGAM) (Homo sapiens, UniProt O43451); test: MGAM inhibition assay (glucose released from maltose); type: biochemical; conditions: maltose substrate, 37 °C, pH 6.4
# T3 construct: made in house
# Protocol: as §2
# α-amylase = target: T4, α-amylase (Sus scrofa, UniProt P00690); test: Kinetics of α-amylase inhibition (Michaelis–Menten, Lineweaver–Burk); type: biochemical, porcine
# T4 construct: α-amylase from porcine pancreas (EC 3.2.1.1), type VI-B; purchased Sigma Aldrich type VI-B; host or cells: porcine pancreas
# T4 sequence (P00690 16-511): T1 sequence (P00690 16-511)
# Protocol: as §1, with “α-amylase. […]” for “α-amylase.”
# α-glucosidase = test system: α-glucosidase; design: method as in doi:10.1007/s12257-017-0049-8; conditions: at 10 mg/mL; cited from earlier work
# T2 sequence (O43451 whole entry): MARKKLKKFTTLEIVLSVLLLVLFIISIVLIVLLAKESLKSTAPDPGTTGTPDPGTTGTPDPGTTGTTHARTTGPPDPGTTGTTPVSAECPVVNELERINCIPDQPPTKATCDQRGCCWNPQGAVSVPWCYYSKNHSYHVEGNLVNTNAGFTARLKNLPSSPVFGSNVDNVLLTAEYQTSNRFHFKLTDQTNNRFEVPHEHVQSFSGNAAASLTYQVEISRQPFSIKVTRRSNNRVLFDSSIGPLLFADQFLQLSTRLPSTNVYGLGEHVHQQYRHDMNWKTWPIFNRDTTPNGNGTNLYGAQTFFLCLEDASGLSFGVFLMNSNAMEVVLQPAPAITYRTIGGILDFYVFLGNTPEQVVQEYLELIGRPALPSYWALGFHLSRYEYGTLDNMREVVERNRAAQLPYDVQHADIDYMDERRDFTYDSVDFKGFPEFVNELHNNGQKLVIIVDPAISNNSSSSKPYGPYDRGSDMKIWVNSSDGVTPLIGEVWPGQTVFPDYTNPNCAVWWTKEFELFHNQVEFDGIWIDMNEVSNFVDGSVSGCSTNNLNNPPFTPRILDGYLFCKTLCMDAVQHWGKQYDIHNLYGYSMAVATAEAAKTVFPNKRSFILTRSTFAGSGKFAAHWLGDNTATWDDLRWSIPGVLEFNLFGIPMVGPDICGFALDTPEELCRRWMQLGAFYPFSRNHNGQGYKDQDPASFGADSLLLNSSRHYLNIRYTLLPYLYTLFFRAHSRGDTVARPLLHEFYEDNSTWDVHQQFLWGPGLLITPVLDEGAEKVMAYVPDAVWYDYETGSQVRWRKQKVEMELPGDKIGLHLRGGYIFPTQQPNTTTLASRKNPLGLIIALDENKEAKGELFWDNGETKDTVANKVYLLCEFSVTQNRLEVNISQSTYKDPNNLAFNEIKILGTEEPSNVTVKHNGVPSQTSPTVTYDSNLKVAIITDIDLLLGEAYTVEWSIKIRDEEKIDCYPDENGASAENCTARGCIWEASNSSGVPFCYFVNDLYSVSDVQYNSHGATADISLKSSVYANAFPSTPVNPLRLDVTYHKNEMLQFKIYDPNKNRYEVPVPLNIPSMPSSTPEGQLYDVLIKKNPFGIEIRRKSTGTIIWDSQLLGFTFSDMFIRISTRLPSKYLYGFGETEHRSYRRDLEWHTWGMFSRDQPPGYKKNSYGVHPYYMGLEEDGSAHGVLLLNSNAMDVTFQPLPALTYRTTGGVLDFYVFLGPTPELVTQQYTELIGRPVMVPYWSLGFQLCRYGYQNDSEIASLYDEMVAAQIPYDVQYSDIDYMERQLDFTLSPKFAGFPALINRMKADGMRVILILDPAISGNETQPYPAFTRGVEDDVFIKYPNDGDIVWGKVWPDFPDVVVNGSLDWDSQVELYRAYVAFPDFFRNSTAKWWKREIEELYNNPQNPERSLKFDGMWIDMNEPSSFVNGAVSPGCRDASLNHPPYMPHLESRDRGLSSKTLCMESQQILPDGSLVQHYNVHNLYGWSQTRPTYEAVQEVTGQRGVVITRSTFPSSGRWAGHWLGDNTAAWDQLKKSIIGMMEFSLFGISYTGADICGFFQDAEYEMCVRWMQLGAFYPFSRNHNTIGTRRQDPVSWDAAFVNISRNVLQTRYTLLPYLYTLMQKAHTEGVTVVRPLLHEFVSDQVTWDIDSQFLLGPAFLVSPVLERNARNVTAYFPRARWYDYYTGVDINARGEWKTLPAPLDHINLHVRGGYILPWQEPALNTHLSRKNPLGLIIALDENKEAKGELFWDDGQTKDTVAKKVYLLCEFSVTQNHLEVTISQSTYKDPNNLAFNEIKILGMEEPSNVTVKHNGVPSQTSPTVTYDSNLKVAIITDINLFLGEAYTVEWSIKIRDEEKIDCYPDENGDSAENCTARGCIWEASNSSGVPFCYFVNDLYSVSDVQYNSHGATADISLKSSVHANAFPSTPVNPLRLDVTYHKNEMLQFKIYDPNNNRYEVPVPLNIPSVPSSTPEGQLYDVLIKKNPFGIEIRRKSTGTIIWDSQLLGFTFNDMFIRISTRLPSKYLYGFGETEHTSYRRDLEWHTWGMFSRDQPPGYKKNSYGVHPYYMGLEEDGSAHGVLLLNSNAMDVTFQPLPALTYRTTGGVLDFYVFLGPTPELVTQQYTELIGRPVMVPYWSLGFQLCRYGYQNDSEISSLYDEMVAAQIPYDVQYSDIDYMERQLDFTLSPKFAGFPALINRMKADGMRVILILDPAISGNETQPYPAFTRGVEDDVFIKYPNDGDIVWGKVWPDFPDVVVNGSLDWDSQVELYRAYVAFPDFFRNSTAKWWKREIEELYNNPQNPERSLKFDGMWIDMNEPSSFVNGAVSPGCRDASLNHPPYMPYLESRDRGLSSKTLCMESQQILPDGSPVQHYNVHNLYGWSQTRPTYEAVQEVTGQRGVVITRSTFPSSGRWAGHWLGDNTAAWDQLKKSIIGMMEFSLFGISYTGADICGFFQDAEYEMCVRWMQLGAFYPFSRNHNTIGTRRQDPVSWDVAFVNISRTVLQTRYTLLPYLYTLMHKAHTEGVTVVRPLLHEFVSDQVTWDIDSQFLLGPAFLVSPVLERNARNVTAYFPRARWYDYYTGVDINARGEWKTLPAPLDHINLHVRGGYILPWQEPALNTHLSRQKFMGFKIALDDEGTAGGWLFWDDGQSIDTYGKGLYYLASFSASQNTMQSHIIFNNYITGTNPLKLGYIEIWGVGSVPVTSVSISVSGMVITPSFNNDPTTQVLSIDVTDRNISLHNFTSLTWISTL
# T3 sequence (O43451 whole entry): as above
Inhibition Type (MGAM) (MGAM [3]),"Vmax^app, inhibitor concentration A (MGAM [3])","Vmax^app, inhibitor concentration B (MGAM [3])","Vmax^app, inhibitor concentration C (MGAM [3])",Ki (MGAM [3]),IC50 [4],Structure (SMILES),inhibition rate (α-glucosidase),further results
,,,,,,C[C@H]1O[C@H](O[C@H]2[C@H](O)[C@@H](O)[C@@H](O[C@H]3[C@H](O)[C@@H](O)C(O)O[C@@H]3CO)O[C@@H]2CO)[C@H](O)[C@@H](O)[C@@H]1N[C@H]1C=C(CO)[C@@H](O)[C@H](O)[C@H]1O (stereo partly shown) [Acarbose],,Ki (MGAM [1]): 0.062 mM; Ki for MGAM (MGAM [1]): 40 µg/mL
Competitive,0.101 DO/min,0.093 DO/min,0.102 DO/min,44.2 mM,32.3 mM,"OC1COC(OC2C(O)COC(OC3COC(O)C(O)C3O)C2O)C(O)C1O (stereo not drawn) [DX3, β-(1→3)-xylosyl-β-(1→4)-xylobiose]",,IC50 [2]: 128 mM
Competitive,0.102 DO/min,0.105 DO/min,0.102 DO/min,42.7 mM,23.6 mM,"OC1COC(OC2C(O)COC(OC3COC(OC4COC(O)C(O)C4O)C(O)C3O)C2O)C(O)C1O (stereo not drawn) [DX4, β-(1→3)-xylosyl-β-(1→4)-xylotriose]",,inhibition at 10640 µg/mL ([2]; at 10.64 mg/mL): 2.9%
Competitive,0.086 DO/min,0.086 DO/min,0.086 DO/min,53.9 mM,45 mM,"OC1COC(OC2COC(O)C(O)C2O)C(O)C1O (stereo not drawn) [X2, β-(1→4)-xylobiose]",,"Inhibition type (α-amylase) (α-amylase; Lineweaver–Burk plot): competitive; Vmax^app (α-amylase) (α-amylase; X2 12.42 mg/mL, X3 13.58 mg/mL, without inhibitor 0.056): 0.061 DO/min; IC50 [2]: 64 mM"
,,,,,,OC[C@H]1OC(O)[C@H](O)[C@@H](O[C@@H]2O[C@H]3CO[C@@H]([C@@H]2O)[C@@H]3O)[C@H]1O (stereo partly shown) [neoagarobiose],35.3%,
,,,,,,OC[C@H]1O[C@@H](O)[C@H](O)[C@@H](O[C@@H]2O[C@H]3CO[C@@H]([C@@H]2O)[C@@H]3O[C@@H]2O[C@H](CO)[C@H](O)[C@H](O[C@@H]3O[C@H]4CO[C@@H]([C@@H]3O)[C@@H]4O[C@@H]3O[C@H](CO)[C@H](O)[C@H](O[C@@H]4O[C@H]5CO[C@@H]([C@@H]4O)[C@@H]5O)[C@H]3O)[C@H]2O)[C@H]1O [neoagarohexaose],17.0%,
,,,,,,OC[C@H]1O[C@@H](O)[C@H](O)[C@@H](O[C@@H]2O[C@H]3CO[C@@H]([C@@H]2O)[C@@H]3O[C@@H]2O[C@H](CO)[C@H](O)[C@H](O[C@@H]3O[C@H]4CO[C@@H]([C@@H]3O)[C@@H]4O)[C@H]2O)[C@H]1O [neoagarotetraose],33.2%,
